The text below walks through data of patent publication US20050250737A1, “Therapeutic ophthalmic compositions containing retinal friendly excipients and related methods” (Allergan, Inc., priority 2003, published 2005).

Broadly, the viability is a read-out of living cells in per cent, often relative to untreated cells.

The test system of one data set is ARPE-19 cells. The data set can be described thus: MTT cell viability assay on ARPE-19 cells. Conditions: for Reduction of cell survival: 24, 48 and 72 hour time points. The text has this:
(§1) Cell viability and cell morphology were examined to evaluate the toxicity of excipients on retinal pigment epithelial cells. The human retina cell line used in these experiments is the ARPE-19 cell line (human adult-derived retinal pigmented epithelial cells). […] They form tight-junctions with transepithelial resistance of monolayers (Dunn K C et al., supra). From a molecular standpoint, it appears that ARPE-19 express a huge pattern of genes similar to those expressed by human RPE from fresh explant which could account for their physiological function (Klimanskaya I. et al., “Derivation and comparative assessment of retinal pigment epithelium from human embryonic stem cells using transcriptomics”, Cloning and Stem Cells, 2004, 6(3):217-45).
(§2) ARPE-19 cells are widely used as a retinal model that resemble physiological properties of RPE cells. Similar methods of culturing ARPE-19 cells and cytotoxicity assays can be found in Yeung et al., “Cytotoxicity of triamcinolone on cultured human retinal pigment epithelial cells: comparison with dexamethasone and hydrocortisone”, Jpn J. Ophthalmol, 2004; 48:236-242. Cell viability and cell morphology were examined using conventional colormetric and visual methods. Viability and morphology measurements were obtained at 24 hours, 48 hours, and 72 hours after exposure to an excipient composition.
(§3) To assess cell viability, mitochondrial metabolism was quantified through conventional colorometric assays (i.e., the MTT assay). This calorimetric assay utilizes 3-(4,5-dimethylthiazol-2-yl)-2,5-diphenyltetrazolium bromide (MTT) and correlates mitochondrial metabolism and cell viability through measurement of dehydrogenase activity which converts a substrate into crystal. More specifically, the assay measures the activity of living cells through mitochondrial dehydrogenases. When dissolved in culture cell medium, MTT solution appears dark orange. Mitochondrial dehydrogenases of viable cells degrade MTT by cleaving the tetrazolium ring yielding to formation of a purple formazan crystal, which is insoluble in water. Crystals are subsequently dissolved in isopropanol solution. A resulting purple solution is spectrophotometrically measured. Cell viability is relative to amount of formazan and calculated as a percentage of remaining treated compared to non-treated cells.
(§4) Results from the MTT assay were expressed as a percentage of cell viability calculated using the following equation: % cell viability=ODtest/ODcontrol×100.
(§5) For each experiment, one concentration was performed in triplicate. Each point was spectrophotometrically read twice. Average of readings was calculated, then average from these 3 values was determined.
(§6) After 3 experiments were independently completed under the same conditions, a graph was plotted with cell viability expressed as a function of concentration (dose response) and for various incubation period (time course). The IC50 was then estimated based on the graphed data.
(§7) More specifically, cell density in 24-multiwell plates was observed on the day of the experiment to check if confluence of the cells was reached. Aliquots of MTT concentrated solutions were removed from a freezer at −20° C. and thawed at room temperature. Cell medium was warmed at 37° C. before use. Appropriated tubes for diluting compounds were prepared. Higher concentrations of each excipient agent was prepared. Serial dilution was then performed in cell medium (DMEM:F12+10% FBS).
(§8) Cell culture medium in the 24-well plate was removed using vacuum-pump. Cells were then stimulated with 0.5 ml final volume for each concentration of one given excipient agent. Distribution of the excipient-containing solution was performed using automated pipet-aid in sterile environment (under PSM) or not depending on time of compounds and duration of incubation.
(§9) After stimulation, cells were replaced in a CO2 incubator for the required time of exposure.
(In general: Tetrazolium dyes change colour on reduction, which living cells bring about.)

A short description of data set [1]: Osmolarity of excipient-containing incubating solutions. It counts as physicochemical. The procedure:
Osmolarity was measured using osmometer type 13/13DR from Roebling (Berlin, GR).
(§10) For each concentration of tested compound, pH and osmolarity parameters were measured.

The nature of data set [2]: pH of excipient-containing incubating solutions. In kind it is physicochemical. Here is the method:
as §10

Another data set is described as follows: in vitro. Conditions: human, Cell viability.
Text: as §1, §2, §3, §4, §5, §6, §7, §8, §9

On to “sulfobutyl ether 4 beta-cyclodextrin [Captisol]”, for which the “Reduction of cell survival” value in the data set with ARPE-19 cells (0.1% (w/v)) is 10-20%. The “Cell survival (% of the initial value)” value with ARPE-19 cells (5% (w/v)) was 70-80%. Further, the Cell survival in the data set with ARPE-19 cells (10% (w/v), 24 hour time point) was 50-60%. For the same molecule, the “Osmolarity of excipient dilution” value is reported as 310 mOsm in data set [1] (0.1% in culture medium); 318 mOsm in data set [1] (0.5% in culture medium); 333 mOsm in data set [1] (1% in culture medium); 408 mOsm in data set [1] (5% in culture medium); 518 mOsm in data set [1] (10% in culture medium); “far exceeds physiological osmolarity range” in data set [1] (20% in culture medium, listed as Sulfobutylether 4 beta-CD). The “Osmolarity of excipient dilution” value in data set [1] (20% in culture medium, listed as Sulfobutylether 4beta-CD) stood at 710 mOsm. For the same molecule, the “pH of excipient dilution” value in data set [2] (0.1% in culture medium) is given as 7.6; in data set [2] (0.5% in culture medium), 7.6; in data set [2] (1% in culture medium) it was 7.6; in data set [2] (5% in culture medium), 7.6; in data set [2] (10% in culture medium), 7.7; in data set [2] (20% in culture medium), 7.7.

With hydroxypropylmethyl cellulose [HPMC], in the data set with ARPE-19 cells, the “Cell viability, experiment 3” value stood at 77.4% and the “Decrease of cell viability” value is given as 20-40%.

For the molecule `CCCCCCCC/C=C\CCCCCCCC(=O)OCCOCC(OCCO)C1OCC(OCCO)C1OCCO` (stereo not drawn) [Polysorbate 80, polysorbate 80], the Cell survival entry with ARPE-19 cells (0.1% (w/v)) was “substantially zero cell survival”. In the data set with ARPE-19 cells (0.1% (w/v), listed as Tween80), the Cell survival entry is recorded as “lethality”. Besides, in the data set “in vitro” (Mean (%)), the viability at 24 h, 0.01 % is 93.5%; the viability at 24 h, 0.02 % worked out at 98.6%; the viability at 24 h, 0.04 % was found to be 104%; the viability at 24 h, 0.06 % came to 101%. In the data set “in vitro” (Mean (%)), the viability at 24 h, 0.08 % was 82.3%; the viability at 24 h, 0.1 % is 3.9%; the viability at 48 h, 0.01 % was found to be 110%; the viability at 48 h, 0.02 % is 118%. Moreover, in the data set “in vitro” (Mean (%)), the viability at 48 h, 0.04 % came out at 125%; the viability at 48 h, 0.06 % turned out to be 128%; the viability at 48 h, 0.08 % was 72.9%; the viability at 48 h, 0.1 % was determined as 0.5%. In the data set “in vitro” (Mean (%)), the viability at 72 h, 0.01 % was found to be 120%; the viability at 72 h, 0.02 % is 126%; the viability at 72 h, 0.04 % is 142%; the viability at 72 h, 0.06 % worked out at 157%. In the data set “in vitro” (Mean (%)), the viability at 72 h, 0.08 % was determined as 74.8% and the viability at 72 h, 0.1 % was 0.6%. Besides, in “in vitro” (experiments 1, 2, 3), the viability at 24 h, 0.01 % was determined as 90.3%; the viability at 24 h, 0.02 % was 91.8%; the viability at 48 h, 0.01 % amounted to 109%; the viability at 48 h, 0.02 % came to 122%. Further, in “in vitro” (experiments 1, 2, 3), the viability at 48 h, 0.04 % came to 126%; the viability at 72 h, 0.01 % was determined as 122%; the viability at 72 h, 0.02 % amounted to 129%; the viability at 72 h, 0.04 % worked out at 138%. Also, in the data set “in vitro” (experiments 1, 2, 3), the viability at 72 h, 0.06 % amounted to 148%. In addition, in data set [1] (0.01% in culture medium), the “Osmolarity of excipient dilution” value was 310 mOsm. For the same molecule, the “Osmolarity of excipient dilution” value in data set [1] (0.02% in culture medium) was found to be 307 mOsm. Further, the “Osmolarity of excipient dilution” value in data set [1] (0.04% in culture medium) was determined as 313 mOsm. Moreover, in data set [1] (0.06% in culture medium), the “Osmolarity of excipient dilution” value was determined as 346 mOsm. The “Osmolarity of excipient dilution” value in data set [1] (0.08% in culture medium) is listed as 390 mOsm. For the same molecule, the “Osmolarity of excipient dilution” value in data set [1] (0.1% in culture medium) is on record as 523 mOsm. The “pH of excipient dilution” value in data set [2] (0.01% in culture medium) is 7.5. For the same molecule, the “pH of excipient dilution” value in data set [2] (0.02% in culture medium) turned out to be 7.6. The “pH of excipient dilution” value in data set [2] (0.04% in culture medium) is 7.5. The “pH of excipient dilution” value in data set [2] (0.06% in culture medium) amounted to 7.5. In data set [2] (0.08% in culture medium), the “pH of excipient dilution” value worked out at 7.5. In addition, the “pH of excipient dilution” value in data set [2] (0.1% in culture medium) came to 7.6.

As for hyaluronic acid [HA], the Cell viability in the data set on ARPE-19 cells is given as around 25%.

With “hydroxypropyl gamma-cyclodextrin [Cavasol]”, in the data set on ARPE-19 cells, the “Effect on both cell parameters (viability, morphology)” value is “no measurable effect on both cell parameters”. The Viable cells entry in the data set with ARPE-19 cells is reported as “approximately 80%”. Further, the “Percentage of living cells” value with ARPE-19 cells (0.05 to 10%, after recovery (later than 24 h)) is recorded as above 80%. The “Reduction of cell survival” value in the data set with ARPE-19 cells (0.1% (w/v)) was at most 10%. The “Cell survival (% of the initial value)” value with ARPE-19 cells (10% (w/v)) is “about 80%”. Also, in the data set on ARPE-19 cells (at the tested concentrations and incubation times), the “IC50 (cell viability), statement in words” value is listed as “not possible to determine the IC50”. In addition, the “pH of excipient dilution” value in data set [2] (0.1% in culture medium), in data set [2] (0.5% in culture medium), in data set [2] (1% in culture medium), in data set [2] (5% in culture medium), in data set [2] (10% in culture medium) and in data set [2] (20% in culture medium) was 7.6 each time.
